Assay results from paper PMC6112376, “Comprehensive Analyses and Prioritization of Tox21 10K Chemicals Affecting Mitochondrial Function by in-Depth Mechanistic Studies” (Environmental Health Perspectives, 2018).
Read-outs that look alike come from different tables or passages of the source.

What was measured:
rat primary hepatocytes = experiment: MMP assay in rat primary hepatocytes; conditions: for IC50: Rattus norvegicus, Hepatocyte; for MMP assays efficacy (%) Rat Hepatocytes: mean ± SD of three experiments
hNSC = experiment: MMP assay in human neural stem cells (hNSC); format: cell-based; conditions: Homo sapiens, Neural stem cell; 1 h treatment; fresh re-sourced stocks; mean±SD of three experiments; read-out: hNSC IC50 (MMP)
[1] = system: isolated rat liver mitochondria; experiment: Oxygen consumption, Clark-type oxygen electrode; format: biochemical; conditions: for I-ADP, % of control (O2 consumption rate): glutamate/malate driven state 3 respiration; for I-ADP, % of control (O2 consumption rate) / I-sub, % of control (O2 consumption rate) / II-ADP, % of control (O2 consumption rate) / II-sub, % of control (O2 consumption rate): isolated rat liver mitochondria; for I-sub, % of control (O2 consumption rate): glutamate/malate driven state 4 respiration; for II-ADP, % of control (O2 consumption rate): succinate-driven state 3 respiration; for II-sub, % of control (O2 consumption rate): succinate-driven state 4 respiration; for Potential Mechanism: mitochondrial respiration in isolated rat liver mitochondria, Clark type oxygen electrode, over tested concentrations
HepG2 cells [2] = experiment: Intracellular ATP content (cell viability) assay; format: cell-based, human; conditions: 40 h treatment, mean±SD of three experiments
[3] = system: Caenorhabditis elegans strain PE255; experiment: In vivo C. elegans ATP status assay; conditions: for minimal effective concentration: Caenorhabditis elegans, read-out: LEC LUM: lowest effect concentration for luminescence, a measure of nematode ATP content
HepG2 cells [4] = experiment: cells; conditions: Homo sapiens; for Emax: HepG2, read-out: MMP assays efficacy (%) HepG2
HepG2 cells [5] = experiment: ROS-Glo hydrogen peroxide (ROS) assay; format: cell-based, human; conditions: Homo sapiens, HepG2; 2 h treatment; mean±SD of three experiments; read-out: ROS (HepG2) EC50
[6] = system: Caenorhabditis elegans (Bristol N2); experiment: C. elegans larval development and growth assay; conditions: for minimal effective concentration: Caenorhabditis elegans, read-out: LEC EXT: lowest effect concentration for extinction, a measure of nematode size
HepG2 cells [7] = conditions: cited from earlier work; for IC50: read-out: MMP assays IC50 (µM) qHTS-HepG2
[8] = system: Nrf2/ARE (ARE-bla HepG2 cells); experiment: ARE β-lactamase reporter gene assay; format: cell-based, human; conditions: Homo sapiens, HepG2; 16 h incubation; mean±SD of three experiments; read-out: ARE (HepG2) EC50
[9] = system: HeLa cells expressing YFP-Parkin; experiment: Parkin translocation assay; format: cell-based, human; conditions: HeLa cells stably expressing YFP-Parkin; treated for 2 h
[10] = read-out: MMP assays IC50 (µM) Rat Hepatocytes
[11] = HepG2, read-out: MMP assays IC50 (µM) HepG2

For `NNc1nc(-c2ccccc2)cs1` [2-Hydrazino-4-phenylthiazole], the “Rat hepatocytes (efficacy) (MMP)” value (rat primary hepatocytes; % of positive control, mean±SD of three experiments) was −57.1±16.9%, the IC50 (rat primary hepatocytes; 1 h, read-out: Rat hepatocytes IC50 (MMP)) was 54.7 ± 21.1 µM and the IC50 (rat primary hepatocytes; [10]) was 21.5 ± 17.6 µM. The “MMP assays efficacy (%) Rat Hepatocytes” value (rat primary hepatocytes) was -81±30%, the IC50 (hNSC) was 14.2 ± 2.56 µM and the “I-ADP, % of control (O2 consumption rate)” value ([1]; 100 µM) was 94 (50.2) % of control. For the same molecule, the “I-sub, % of control (O2 consumption rate)” value ([1]; 100 µM) was 119 (16.0) % of control, the “II-ADP, % of control (O2 consumption rate)” value (shortened to “II-ADP, % of control”) ([1]; 100 µM) was 88 (59.2) % of control and the “II-sub, % of control (O2 consumption rate)” value (from here on “II-sub, % of control”) ([1]; 100 µM) was 99 (21.4) % of control. The “Potential Mechanism” value [1] was “Inactive”, the “ATP (HepG2, glucose) IC50” value (HepG2 cells [2]; 5 mM glucose) was “Inactive” and the “ATP (HepG2, galactose) IC50” value (HepG2 cells [2]; 10 mM galactose) was “Inactive”. For the same molecule, the minimal effective concentration [3] was 25 µM, the IC50 (HepG2 cells [4]; HepG2, 1 h, read-out: HepG2 IC50 Galactose (MMP)) was 48.2 ± 17.5 µM and the IC50 (HepG2 cells [4]; HepG2, 1 h, read-out: HepG2 IC50 Glucose (MMP)) was 37.1 ± 6.33 µM. The IC50 (HepG2 cells [4]; [11]) was 10 µM, the Emax (HepG2 cells [4]) was 103% and the EC50 (HepG2 cells [5]) was 34.5 ± 28.8 µM. For the same molecule, the “LEC (lowest effect concentration), larval growth assay” value ([6]; 48 h exposure) was ≤ 10 µM, the minimal effective concentration [6] was 10 µM and the “MMP assays efficacy (%) qHTS-HepG2” value (HepG2 cells [7]) was -118±14%. For the same molecule, the IC50 (HepG2 cells [7]) was 2.32 ± 0.79 µM, the EC50 [8] was 6.92 ± 1.73 µM and the Parkin recruitment [9] was “Inactive”.

With `Cc1cc(Cc2cc(C)cc(C(C)(C)C)c2O)c(O)c(C(C)(C)C)c1` the IC50 (rat primary hepatocytes; [10]) was 3.71 ± 0.47 µM, the “MMP assays efficacy (%) Rat Hepatocytes” value (rat primary hepatocytes) was -125±63% and the “I-ADP, % of control (O2 consumption rate)” value ([1]; 20 µM) was 103 (50.8) % of control. For the same molecule, the “I-sub, % of control (O2 consumption rate)” value ([1]; 20 µM) was 116 (18.6) % of control, the “II-ADP, % of control” value ([1]; 20 µM) was 101 (78.4) % of control and the “II-sub, % of control” value ([1]; 20 µM) was 103 (31.4) % of control. The “I-ADP, % of control (O2 consumption rate)” value ([1]; 100 µM) was 100 (28.6) % of control, the “I-sub, % of control (O2 consumption rate)” value ([1]; 100 µM) was 244 (29.2) % of control and the “II-ADP, % of control” value ([1]; 100 µM) was 91 (33.1) % of control. The “II-sub, % of control” value ([1]; 100 µM) was 184 (27.2) % of control, the “Potential Mechanism” value [1] was “Uncoupler” and the “LUM: mean difference in luminescence (ATP content) relative to plate controls” value ([3]; 0.5 µM) was -0.1638. For the same molecule, the “LUM: mean difference in luminescence (ATP content) relative to plate controls” value ([3]; 1 µM) was -0.2926, the “LUM: mean difference in luminescence (ATP content) relative to plate controls” value ([3]; 5 µM) was -0.4173 and the “LUM: mean difference in luminescence (ATP content) relative to plate controls” value ([3]; 10 µM) was -0.05227. For the same molecule, the “LUM: mean difference in luminescence (ATP content) relative to plate controls” value ([3]; 25 µM) was 0.3804, the “LUM: mean difference in luminescence (ATP content) relative to plate controls” value ([3]; 50 µM) was 0.9583 and the “LUM: mean difference in luminescence (ATP content) relative to plate controls” value ([3]; 75 µM) was 0.4391. The “LUM: mean difference in luminescence (ATP content) relative to plate controls” value ([3]; 100 µM) was 0.9663, the minimal effective concentration [3] was 50 µM and the IC50 (HepG2 cells [4]; [11]) was 2 µM. The Emax (HepG2 cells [4]) was 97%, the “EXT: mean difference in nematode size relative to plate controls” value ([6]; 0.5 µM) was 0.1192 and the “EXT: mean difference in nematode size relative to plate controls” value ([6]; 1 µM) was 0.1294. The “EXT: mean difference in nematode size relative to plate controls” value ([6]; 5 µM) was 0.8511, the “EXT: mean difference in nematode size relative to plate controls” value ([6]; 10 µM) was 1.077 and the “EXT: mean difference in nematode size relative to plate controls” value ([6]; 25 µM) was 1.41. The “EXT: mean difference in nematode size relative to plate controls” value ([6]; 50 µM) was 2.096, the “EXT: mean difference in nematode size relative to plate controls” value ([6]; 75 µM) was 2.103 and the “EXT: mean difference in nematode size relative to plate controls” value ([6]; 100 µM) was 2.175. For the same molecule, the minimal effective concentration [6] was 5 µM, the “MMP assays efficacy (%) qHTS-HepG2” value (HepG2 cells [7]) was -96±2% and the IC50 (HepG2 cells [7]) was 1.35 ± 0.26 µM.
